Laboratory results reported in ChEMBL document CHEMBL4196010, “New hydrazides derivatives of isoniazid against Mycobacterium tuberculosis: Higher potency and lower hepatocytotoxicity” (Eur J Med Chem, 2018).
In brackets after ≈: the same amount, converted by molar mass.

What was measured:
[1] = tested on: Mycobacterium tuberculosis; test: Antitubercular activity against Mycobacterium tuberculosis H37Rv ATCC 27294 after 5 days by microplate alamar blue assay; type: functional; details: H37Rv ATCC 27294, 120 h
[2] = tested on: Mycobacterium tuberculosis; test: Antitubercular activity against Mycobacterium tuberculosis; type: functional
Salmonella typhimurium [3] = test: Genotoxicity in Salmonella typhimurium TA98 assessed as increase in revertant colonies at 0.5 uM preincubated for 20 mins followed by addition of top agar and minimal agar and measured after 72 hrs in presence of S9 metabolic activation system by Ames test relative to control; type: toxicity, organism-based; details: salmonella enterica subsp. enterica serovar typhimurium
[4] = tested on: Mycobacterium tuberculosis; test: Potency index, ratio of ethambutol MIC to compound MIC for antitubercular activity against Mycobacterium tuberculosis H37Rv ATCC 27294; type: functional
[5] = tested on: Mycobacterium tuberculosis; test: Potency index, ratio of pyrazinamide MIC to compound MIC for antitubercular activity against Mycobacterium tuberculosis H37Rv ATCC 27294; type: functional
J774.A1 [6] = test: Cytotoxicity against mouse J774A.1 cells assessed as decrease in cell viability at 1 nM after 20 hrs by resazurin dye-based fluorimetric method; details: j774.a1, 20 h, 0.001 µM
J774.A1 [7] = test: Cytotoxicity against mouse J774A.1 cells assessed as decrease in cell viability at 10 nM after 20 hrs by resazurin dye-based fluorimetric method; details: j774.a1, 20 h, 0.01 µM
J774.A1 [8] = test: Cytotoxicity against mouse J774A.1 cells assessed as decrease in cell viability at 100 nM after 20 hrs by resazurin dye-based fluorimetric method; details: j774.a1, 20 h, 0.1 µM
J774.A1 [9] = test: Cytotoxicity against mouse J774A.1 cells assessed as decrease in cell viability at 1 uM after 20 hrs by resazurin dye-based fluorimetric method; details: j774.a1, 20 h
J774.A1 [10] = test: Cytotoxicity against mouse J774A.1 cells assessed as decrease in cell viability at 10 uM after 20 hrs by resazurin dye-based fluorimetric method; details: j774.a1, 20 h
J774.A1 [11] = test: Cytotoxicity against mouse J774A.1 cells assessed as decrease in cell viability at 100 uM after 20 hrs by resazurin dye-based fluorimetric method; details: j774.a1, 20 h
[12] = Cytotoxicity against human HepG2 cells after 3 hrs by WST-1 assay; type: cell-based; details: read-out: LC50
[13] = Cytotoxicity against human HepG2 cells after 24 hrs by WST-1 assay; type: cell-based; details: read-out: LC50
[14] = Selectivity index, ratio of LC50 for human HepG2 cells to MIC for Mycobacterium tuberculosis H37Rv ATCC 27294; type: toxicity; details: read-out: Selectivity Index
Salmonella typhimurium [15] = test: Genotoxicity in Salmonella typhimurium TA98 assessed as increase in revertant colonies at 0.5 uM preincubated for 20 mins followed by addition of top agar and minimal agar and measured after 72 hrs in absence of S9 metabolic activation system by Ames test relative to control; type: toxicity, organism-based; details: salmonella enterica subsp. enterica serovar typhimurium
Salmonella typhimurium [16] = test: Genotoxicity in Salmonella typhimurium TA98 assessed as increase in revertant colonies at 5 uM preincubated for 20 mins followed by addition of top agar and minimal agar and measured after 72 hrs in absence of S9 metabolic activation system by Ames test relative to control; type: toxicity, organism-based; details: salmonella enterica subsp. enterica serovar typhimurium
Salmonella typhimurium [17] = test: Genotoxicity in Salmonella typhimurium TA98 assessed as increase in revertant colonies at 50 uM preincubated for 20 mins followed by addition of top agar and minimal agar and measured after 72 hrs in absence of S9 metabolic activation system by Ames test relative to control; type: toxicity, organism-based; details: salmonella enterica subsp. enterica serovar typhimurium
Salmonella typhimurium [18] = test: Genotoxicity in Salmonella typhimurium TA98 assessed as increase in revertant colonies at 500 uM preincubated for 20 mins followed by addition of top agar and minimal agar and measured after 72 hrs in absence of S9 metabolic activation system by Ames test relative to control; type: toxicity, organism-based; details: salmonella enterica subsp. enterica serovar typhimurium
Salmonella typhimurium [19] = test: Genotoxicity in Salmonella typhimurium TA98 assessed as increase in revertant colonies at 5000 uM preincubated for 20 mins followed by addition of top agar and minimal agar and measured after 72 hrs in absence of S9 metabolic activation system by Ames test relative to control; type: toxicity, organism-based; details: salmonella enterica subsp. enterica serovar typhimurium
Salmonella typhimurium [20] = test: Genotoxicity in Salmonella typhimurium TA100 assessed as increase in revertant colonies at 0.5 uM preincubated for 20 mins followed by addition of top agar and minimal agar and measured after 72 hrs in absence of S9 metabolic activation system by Ames test relative to control; type: toxicity, organism-based; details: salmonella enterica subsp. enterica serovar typhimurium
Salmonella typhimurium [21] = test: Genotoxicity in Salmonella typhimurium TA100 assessed as increase in revertant colonies at 5 uM preincubated for 20 mins followed by addition of top agar and minimal agar and measured after 72 hrs in absence of S9 metabolic activation system by Ames test relative to control; type: toxicity, organism-based; details: salmonella enterica subsp. enterica serovar typhimurium
Salmonella typhimurium [22] = test: Genotoxicity in Salmonella typhimurium TA100 assessed as increase in revertant colonies at 50 uM preincubated for 20 mins followed by addition of top agar and minimal agar and measured after 72 hrs in absence of S9 metabolic activation system by Ames test relative to control; type: toxicity, organism-based; details: salmonella enterica subsp. enterica serovar typhimurium
Salmonella typhimurium [23] = test: Genotoxicity in Salmonella typhimurium TA100 assessed as increase in revertant colonies at 500 uM preincubated for 20 mins followed by addition of top agar and minimal agar and measured after 72 hrs in absence of S9 metabolic activation system by Ames test relative to control; type: toxicity, organism-based; details: salmonella enterica subsp. enterica serovar typhimurium
Salmonella typhimurium [24] = test: Genotoxicity in Salmonella typhimurium TA100 assessed as increase in revertant colonies at 5000 uM preincubated for 20 mins followed by addition of top agar and minimal agar and measured after 72 hrs in absence of S9 metabolic activation system by Ames test relative to control; type: toxicity, organism-based; details: salmonella enterica subsp. enterica serovar typhimurium
Salmonella typhimurium [25] = test: Genotoxicity in Salmonella typhimurium TA98 assessed as increase in revertant colonies at 5 uM preincubated for 20 mins followed by addition of top agar and minimal agar and measured after 72 hrs in presence of S9 metabolic activation system by Ames test relative to control; type: toxicity, organism-based; details: salmonella enterica subsp. enterica serovar typhimurium
Salmonella typhimurium [26] = test: Genotoxicity in Salmonella typhimurium TA98 assessed as increase in revertant colonies at 50 uM preincubated for 20 mins followed by addition of top agar and minimal agar and measured after 72 hrs in presence of S9 metabolic activation system by Ames test relative to control; type: toxicity, organism-based; details: salmonella enterica subsp. enterica serovar typhimurium
Salmonella typhimurium [27] = test: Genotoxicity in Salmonella typhimurium TA98 assessed as increase in revertant colonies at 500 uM preincubated for 20 mins followed by addition of top agar and minimal agar and measured after 72 hrs in presence of S9 metabolic activation system by Ames test relative to control; type: toxicity, organism-based; details: salmonella enterica subsp. enterica serovar typhimurium
Salmonella typhimurium [28] = test: Genotoxicity in Salmonella typhimurium TA98 assessed as increase in revertant colonies at 5000 uM preincubated for 20 mins followed by addition of top agar and minimal agar and measured after 72 hrs in presence of S9 metabolic activation system by Ames test relative to control; type: toxicity, organism-based; details: salmonella enterica subsp. enterica serovar typhimurium
Salmonella typhimurium [29] = test: Genotoxicity in Salmonella typhimurium TA100 assessed as increase in revertant colonies at 0.5 uM preincubated for 20 mins followed by addition of top agar and minimal agar and measured after 72 hrs in presence of S9 metabolic activation system by Ames test relative to control; type: toxicity, organism-based; details: salmonella enterica subsp. enterica serovar typhimurium
Salmonella typhimurium [30] = test: Genotoxicity in Salmonella typhimurium TA100 assessed as increase in revertant colonies at 5 uM preincubated for 20 mins followed by addition of top agar and minimal agar and measured after 72 hrs in presence of S9 metabolic activation system by Ames test relative to control; type: toxicity, organism-based; details: salmonella enterica subsp. enterica serovar typhimurium
Salmonella typhimurium [31] = test: Genotoxicity in Salmonella typhimurium TA100 assessed as increase in revertant colonies at 50 uM preincubated for 20 mins followed by addition of top agar and minimal agar and measured after 72 hrs in presence of S9 metabolic activation system by Ames test relative to control; type: toxicity, organism-based; details: salmonella enterica subsp. enterica serovar typhimurium
Salmonella typhimurium [32] = test: Genotoxicity in Salmonella typhimurium TA100 assessed as increase in revertant colonies at 500 uM preincubated for 20 mins followed by addition of top agar and minimal agar and measured after 72 hrs in presence of S9 metabolic activation system by Ames test relative to control; type: toxicity, organism-based; details: salmonella enterica subsp. enterica serovar typhimurium
Salmonella typhimurium [33] = test: Genotoxicity in Salmonella typhimurium TA100 assessed as increase in revertant colonies at 5000 uM preincubated for 20 mins followed by addition of top agar and minimal agar and measured after 72 hrs in presence of S9 metabolic activation system by Ames test relative to control; type: toxicity, organism-based; details: salmonella enterica subsp. enterica serovar typhimurium

Work on `CC(=O)Nc1ccc(C)cc1C(F)(F)C(=O)NNc1ccccn1` yielded an MIC [1] of over 299 µM.

Compound `CC(=O)Nc1ccccc1C(F)(F)C(=O)NNc1ccccn1` has an MIC [1] of over 312 µM.

Work on `COc1ccc(NC(C)=O)c(C(F)(F)C(=O)NNC(=O)c2ccncc2)c1` yielded an MIC [1] of 33.1 µM (≈ 12.5 µg/mL).

For `CC(=O)Nc1ccc(Cl)cc1C(F)(F)C(=O)NNC(=O)c1ccncc1`, the MIC [1] was 16.4 µM (≈ 6.27 µg/mL).

For `CC(=O)Nc1ccc(C)cc1C(F)(F)C(=O)NNC(=O)c1ccncc1`, the MIC [1] was 6.91 µM (≈ 2.5 µg/mL).

`CC(=O)Nc1ccc(Cl)cc1C(F)(F)C(=O)NNC(N)=S` gave an MIC [2] of 297 µM (≈ 100 µg/mL).

For `CC(=O)Nc1ccccc1C(F)(F)C(=O)NN=C1CCCCC1`, the MIC [1] was over 310 µM.

Compound `CC(=O)Nc1ccccc1C(F)(F)C(=O)NNc1ccccc1` has an MIC [1] of over 313 µM.

`CC(=O)Nc1ccc(C)cc1C(F)(F)C(=O)NNc1ccccc1` showed an MIC [1] of over 300 µM.

In the case of `CC(=O)NNC(=O)c1ccncc1`, the MIC [1] is reported as over 559 µM.

For `CC(=O)Nc1ccccc1C(=O)C(=O)NNC(=O)c1ccncc1`, the “fold change (FC)” value (Salmonella typhimurium [3]) was 1.1, the MIC [1] was 0.47 µM (≈ 0.153 µg/mL) and the Ratio [4] was 30. The Ratio [5] was 1800, the Activity (J774.A1 [6]) was 99.6% and the Activity (J774.A1 [7]) was 98.7%. It also gave an Activity (J774.A1 [8]) of 97.7%, an Activity (J774.A1 [9]) of 99.5% and an Activity (J774.A1 [10]) of 97.1%. It also gave an Activity (J774.A1 [11]) of 93.3%, a CC50 at 3 h [12] of over 200 µM and a CC50 at 24 h [13] of 31.5 µM. The selectivity ratio [14] was 67, the “fold change (FC)” value (Salmonella typhimurium [15]) was 1 and the “fold change (FC)” value (Salmonella typhimurium [16]) was 1.1. The “fold change (FC)” value (Salmonella typhimurium [17]) was 1.2, the “fold change (FC)” value (Salmonella typhimurium [18]) was 1.3 and the “fold change (FC)” value (Salmonella typhimurium [19]) was 1.3. For the same compound, the “fold change (FC)” value (Salmonella typhimurium [20]) was 1, the “fold change (FC)” value (Salmonella typhimurium [21]) was 1.3 and the “fold change (FC)” value (Salmonella typhimurium [22]) was 1.3. The “fold change (FC)” value (Salmonella typhimurium [23]) was 1.3, the “fold change (FC)” value (Salmonella typhimurium [24]) was 1.4 and the “fold change (FC)” value (Salmonella typhimurium [25]) was 1.1. The “fold change (FC)” value (Salmonella typhimurium [26]) was 1.6, the “fold change (FC)” value (Salmonella typhimurium [27]) was 2 and the “fold change (FC)” value (Salmonella typhimurium [28]) was 2.5. The “fold change (FC)” value (Salmonella typhimurium [29]) was 1.1, the “fold change (FC)” value (Salmonella typhimurium [30]) was 1.1 and the “fold change (FC)” value (Salmonella typhimurium [31]) was 1.2. The “fold change (FC)” value (Salmonella typhimurium [32]) was 1.2 and the “fold change (FC)” value (Salmonella typhimurium [33]) was 1.3.
